Experimental findings from patent publication US20200385777A1, “METHOD FOR DETERMINING DYSBIOSIS IN THE INTESTINAL MICROBIOME” (EVOLVE BIOSYSTEMS, INC., priority 2018, published 2020) are described below.

The assay concerns Clostridium difficile. As to the kind of experiment: Equine trial: Clostridium difficile diarrhea outcome in foals. The note with it: all foals dosed at birth with 6.6 mg/kg. Type of assay: in vivo, horse. On the procedure: Seventeen foals were born during the initiation of the outbreak, of which fifteen animals became ill and required intervention, applying the standard of care (i.e., antibiotic treatment) and two died. […] All treated animals were given doses immediately at birth and twice per day thereafter for 4 days. […] Two foals, who were dosed starting at 12 hours of life rather than immediately at birth, developed a mild infection by Clostridium difficile but recovered within 8 hr compared to the standard recovery time of >24 hr for sick animals given the standard of care. […] A Fisher's exact test of the two populations (Standard of Care and Probiotic treated) yields a significant difference in incidences of C. difficile infection (p=0.0036) (Table 10).

For `CO/N=C(\C(=O)N[C@@H]1C(=O)N2C(C(=O)O)=C(CSC(=O)c3ccco3)CS[C@H]12)c1csc(N)n1` [ceftiofur], the “Effect on health outcome related to diarrhea” value was “did not affect health outcome”.
